According to ChEMBL document CHEMBL3991601, “The target landscape of clinical kinase drugs” (Science, 2017):
The source made the active and inactive calls. For most assays here, no stated cut-off is given here; in the data, actives have a measured Kd and inactives only a lower limit.

Key:
[1] = biological target: T1, Glycogen phosphorylase, liver form (Homo sapiens, UniProt P06737); assay type: subcellular, K-562, COLO 205, SK-N-BE(2) and MV-4-11, Cell lysate; details: read-out: Kd apparent
T1 sequence (P06737 whole entry): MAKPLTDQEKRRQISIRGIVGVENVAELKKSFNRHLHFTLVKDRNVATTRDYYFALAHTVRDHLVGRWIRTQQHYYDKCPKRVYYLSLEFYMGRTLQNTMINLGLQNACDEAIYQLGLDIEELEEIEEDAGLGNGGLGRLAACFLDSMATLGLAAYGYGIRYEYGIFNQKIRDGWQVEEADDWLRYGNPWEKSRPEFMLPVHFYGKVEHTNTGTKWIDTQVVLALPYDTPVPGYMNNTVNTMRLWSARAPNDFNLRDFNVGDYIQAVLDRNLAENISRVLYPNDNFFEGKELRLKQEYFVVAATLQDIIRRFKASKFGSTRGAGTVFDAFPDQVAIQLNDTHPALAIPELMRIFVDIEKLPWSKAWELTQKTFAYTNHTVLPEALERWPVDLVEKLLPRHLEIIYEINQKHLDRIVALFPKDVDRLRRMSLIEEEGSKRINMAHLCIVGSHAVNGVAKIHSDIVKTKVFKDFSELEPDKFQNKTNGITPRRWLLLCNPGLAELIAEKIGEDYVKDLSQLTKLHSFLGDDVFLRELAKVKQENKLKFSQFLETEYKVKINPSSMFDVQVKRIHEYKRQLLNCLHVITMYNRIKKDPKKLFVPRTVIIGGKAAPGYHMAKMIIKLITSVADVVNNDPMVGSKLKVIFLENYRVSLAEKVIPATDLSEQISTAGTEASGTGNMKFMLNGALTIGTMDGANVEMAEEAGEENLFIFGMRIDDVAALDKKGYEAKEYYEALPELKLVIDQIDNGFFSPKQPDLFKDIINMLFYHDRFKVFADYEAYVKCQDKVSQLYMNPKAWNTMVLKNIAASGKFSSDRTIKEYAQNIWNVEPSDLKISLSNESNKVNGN

[2] = biological target: Bone morphogenetic protein receptor type-1B (Homo sapiens, UniProt O00238)
Chain of Bone morphogenetic protein receptor type-1B (O00238 whole entry): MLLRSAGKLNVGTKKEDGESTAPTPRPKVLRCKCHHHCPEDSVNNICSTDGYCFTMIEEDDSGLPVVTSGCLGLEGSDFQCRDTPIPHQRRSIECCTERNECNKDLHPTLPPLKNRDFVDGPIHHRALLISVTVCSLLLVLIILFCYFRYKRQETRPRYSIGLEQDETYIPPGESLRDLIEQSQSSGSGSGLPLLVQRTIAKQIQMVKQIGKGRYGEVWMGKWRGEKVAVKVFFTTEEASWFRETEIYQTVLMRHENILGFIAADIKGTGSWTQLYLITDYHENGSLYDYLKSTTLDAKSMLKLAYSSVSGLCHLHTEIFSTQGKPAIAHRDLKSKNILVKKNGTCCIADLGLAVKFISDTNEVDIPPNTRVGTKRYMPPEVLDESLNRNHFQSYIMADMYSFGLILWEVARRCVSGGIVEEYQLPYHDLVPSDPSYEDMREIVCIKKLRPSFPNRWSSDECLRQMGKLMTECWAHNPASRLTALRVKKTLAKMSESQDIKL

[3] = biological target: T2, ATP-dependent RNA helicase DDX1 (Homo sapiens, UniProt Q92499)
T2 sequence (Q92499 whole entry): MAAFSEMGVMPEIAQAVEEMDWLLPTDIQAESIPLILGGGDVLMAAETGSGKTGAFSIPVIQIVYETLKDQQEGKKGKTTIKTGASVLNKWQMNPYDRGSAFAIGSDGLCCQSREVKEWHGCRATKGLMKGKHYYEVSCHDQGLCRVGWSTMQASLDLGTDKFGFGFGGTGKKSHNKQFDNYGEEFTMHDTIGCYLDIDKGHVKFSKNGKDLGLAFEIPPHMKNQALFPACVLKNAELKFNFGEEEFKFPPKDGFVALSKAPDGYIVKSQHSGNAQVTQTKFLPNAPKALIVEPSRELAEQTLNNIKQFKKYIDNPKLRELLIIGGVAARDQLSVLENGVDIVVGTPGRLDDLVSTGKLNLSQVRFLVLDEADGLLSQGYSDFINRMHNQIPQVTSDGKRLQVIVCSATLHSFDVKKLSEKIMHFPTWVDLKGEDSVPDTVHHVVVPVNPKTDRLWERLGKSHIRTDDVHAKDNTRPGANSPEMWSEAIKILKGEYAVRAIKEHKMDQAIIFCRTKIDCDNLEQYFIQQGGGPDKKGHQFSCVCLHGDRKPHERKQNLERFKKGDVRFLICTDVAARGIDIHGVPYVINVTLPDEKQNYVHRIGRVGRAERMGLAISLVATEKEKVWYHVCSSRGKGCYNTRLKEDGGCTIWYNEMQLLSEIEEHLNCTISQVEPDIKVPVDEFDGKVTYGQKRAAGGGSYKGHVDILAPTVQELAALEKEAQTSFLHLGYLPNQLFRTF

[4] = biological target: T3, Interleukin-1 receptor-associated kinase 4 (Homo sapiens, UniProt Q9NWZ3)
T3 sequence (Q9NWZ3 whole entry): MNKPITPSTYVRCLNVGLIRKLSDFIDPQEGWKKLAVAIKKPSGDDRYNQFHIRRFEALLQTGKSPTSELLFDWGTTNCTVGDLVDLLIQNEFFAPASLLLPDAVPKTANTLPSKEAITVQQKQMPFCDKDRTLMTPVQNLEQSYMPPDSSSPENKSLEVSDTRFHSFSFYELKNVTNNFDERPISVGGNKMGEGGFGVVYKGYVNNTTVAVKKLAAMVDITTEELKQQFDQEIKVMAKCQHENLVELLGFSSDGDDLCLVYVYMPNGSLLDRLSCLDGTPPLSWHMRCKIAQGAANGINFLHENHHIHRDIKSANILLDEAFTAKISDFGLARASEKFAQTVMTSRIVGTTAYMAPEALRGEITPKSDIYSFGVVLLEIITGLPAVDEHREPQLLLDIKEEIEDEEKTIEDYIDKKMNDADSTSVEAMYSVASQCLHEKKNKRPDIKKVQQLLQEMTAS

[5] = biological target: T4, Mitogen-activated protein kinase kinase kinase kinase 2 (Homo sapiens, UniProt Q12851)
T4 sequence (Q12851 whole entry): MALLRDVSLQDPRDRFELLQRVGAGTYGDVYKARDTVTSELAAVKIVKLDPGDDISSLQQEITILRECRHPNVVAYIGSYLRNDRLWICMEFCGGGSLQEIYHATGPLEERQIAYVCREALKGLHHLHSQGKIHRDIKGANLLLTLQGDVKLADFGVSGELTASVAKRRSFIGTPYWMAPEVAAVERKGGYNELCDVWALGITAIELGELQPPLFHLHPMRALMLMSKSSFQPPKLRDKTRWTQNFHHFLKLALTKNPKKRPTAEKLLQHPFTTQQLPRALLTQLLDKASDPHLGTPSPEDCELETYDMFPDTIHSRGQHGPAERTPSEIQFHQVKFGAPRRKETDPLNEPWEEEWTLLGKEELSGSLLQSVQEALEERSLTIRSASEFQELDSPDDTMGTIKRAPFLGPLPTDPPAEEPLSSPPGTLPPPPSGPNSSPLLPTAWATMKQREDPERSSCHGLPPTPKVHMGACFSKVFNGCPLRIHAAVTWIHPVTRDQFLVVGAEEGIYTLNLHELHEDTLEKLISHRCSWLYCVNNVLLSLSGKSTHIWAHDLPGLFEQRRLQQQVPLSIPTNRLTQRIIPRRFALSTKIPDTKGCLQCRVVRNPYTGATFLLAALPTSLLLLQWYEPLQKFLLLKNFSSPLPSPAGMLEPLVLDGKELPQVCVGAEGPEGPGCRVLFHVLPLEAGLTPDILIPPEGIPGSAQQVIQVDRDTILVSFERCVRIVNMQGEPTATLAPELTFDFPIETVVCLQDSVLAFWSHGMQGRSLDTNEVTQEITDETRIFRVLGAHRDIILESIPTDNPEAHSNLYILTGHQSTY

[6] = biological target: Mitogen-activated protein kinase kinase kinase kinase 5 (Homo sapiens, UniProt Q9Y4K4)
Chain of Mitogen-activated protein kinase kinase kinase kinase 5 (Q9Y4K4 whole entry): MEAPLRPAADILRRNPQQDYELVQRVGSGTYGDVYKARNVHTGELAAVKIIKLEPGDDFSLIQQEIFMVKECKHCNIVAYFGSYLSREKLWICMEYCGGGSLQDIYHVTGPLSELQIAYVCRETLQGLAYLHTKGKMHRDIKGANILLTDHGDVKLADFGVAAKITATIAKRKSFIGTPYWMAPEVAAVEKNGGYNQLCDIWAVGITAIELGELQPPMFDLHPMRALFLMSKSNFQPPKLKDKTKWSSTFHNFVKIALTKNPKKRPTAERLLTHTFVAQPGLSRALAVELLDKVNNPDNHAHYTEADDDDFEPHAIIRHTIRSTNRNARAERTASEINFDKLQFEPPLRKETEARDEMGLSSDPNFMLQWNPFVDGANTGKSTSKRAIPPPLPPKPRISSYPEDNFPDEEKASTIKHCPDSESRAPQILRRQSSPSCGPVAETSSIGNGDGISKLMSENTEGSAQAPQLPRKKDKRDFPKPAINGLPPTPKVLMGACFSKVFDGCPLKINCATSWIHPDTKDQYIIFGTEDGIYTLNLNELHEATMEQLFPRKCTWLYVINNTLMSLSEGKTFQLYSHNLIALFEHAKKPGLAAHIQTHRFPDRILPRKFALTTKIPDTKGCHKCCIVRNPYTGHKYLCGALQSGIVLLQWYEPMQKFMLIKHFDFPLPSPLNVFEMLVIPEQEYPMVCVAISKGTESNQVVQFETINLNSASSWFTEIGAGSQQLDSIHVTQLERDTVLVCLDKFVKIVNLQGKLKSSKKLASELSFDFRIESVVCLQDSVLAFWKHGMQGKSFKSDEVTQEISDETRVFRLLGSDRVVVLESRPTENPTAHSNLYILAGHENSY

| Kd [1] | Kd [2] | Kd [3] | Kd [4] | Kd [5] | Kd [6] | SMILES |
| --- | --- | --- | --- | --- | --- | --- |
| > 30 µM (inactive) | > 30 µM (inactive) | > 30 µM (inactive) | > 30 µM (inactive) | > 30 µM (inactive) | > 30 µM (inactive) | Cn1cc(-c2ccc(F)c(C(F)(F)F)c2)nc1C1CCN(c2ncnc3[nH]ncc23)CC1 [LY-2584702] |
| > 30 µM (inactive) | > 30 µM (inactive) | > 30 µM (inactive) | > 30 µM (inactive) | > 30 µM (inactive) | > 30 µM (inactive) | CNC(=O)c1ccc(C)c(-n2c(C)cc(OCc3ccc(F)cc3F)c(Br)c2=O)c1 [PH-797804] |
| > 30 µM (inactive) | > 30 µM (inactive) | > 30 µM (inactive) | > 30 µM (inactive) | > 30 µM (inactive) | > 30 µM (inactive) | COc1ccc(-c2ccc3c(N4CCOC[C@@H]4C)nc(N4CCOC[C@@H]4C)nc3n2)cc1CO [AZD-8055] |
| > 30 µM (inactive) | > 30 µM (inactive) | > 30 µM (inactive) | > 30 µM (inactive) | 1.85 µM (active) | > 30 µM (inactive) | O=C(O)[C@]1(Cc2cccc(Nc3nccs3)n2)CC[C@@H](Oc2cccc(Cl)c2F)CC1 [MK-5108] |
| > 30 µM (inactive) | > 30 µM (inactive) | > 30 µM (inactive) | > 30 µM (inactive) | 0.11 µM (active) | 0.006 µM (active) | COc1cc(CCc2cc(NC(=O)c3ccc(N4C[C@@H](C)N[C@@H](C)C4)cc3)n[nH]2)cc(OC)c1 [AZD-4547] |

The next lines start with the compound.

| SMILES | Kd [1] | Kd [2] | Kd [3] | Kd [4] | Kd [5] | Kd [6] |
| --- | --- | --- | --- | --- | --- | --- |
| Cn1ncc(Cl)c1-c1cc(C(=O)N[C@H](CN)Cc2cccc(F)c2)sc1Cl [AFURESERTIB] | > 30 µM (inactive) | > 30 µM (inactive) | > 30 µM (inactive) | > 30 µM (inactive) | > 30 µM (inactive) | > 30 µM (inactive) |
| Cc1cc(-c2cc(O)ccc2Cl)cc2nnc(Nc3ccc(OCCN4CCCC4)cc3)nc12 | > 30 µM (inactive) | > 30 µM (inactive) | > 30 µM (inactive) | > 30 µM (inactive) | > 30 µM (inactive) | > 30 µM (inactive) |
| O=C(c1ccc(F)c(F)c1Nc1ccc(I)cc1F)N1CC(O)([C@@H]2CCCCN2)C1 [COBIMETINIB] | > 30 µM (inactive) | > 30 µM (inactive) | > 30 µM (inactive) | > 30 µM (inactive) | > 30 µM (inactive) | > 30 µM (inactive) |
| CN1CCC(COc2cnc(-c3cccc(Cn4nc(-c5cccc(C#N)c5)ccc4=O)c3)nc2)CC1 [TEPOTINIB] | > 30 µM (inactive) | > 30 µM (inactive) | > 30 µM (inactive) | > 30 µM (inactive) | > 30 µM (inactive) | > 30 µM (inactive) |
| CC[C@@H]1C(=O)N(C)c2cnc(Nc3ccc(C(=O)N[C@H]4CC[C@H](N5CCN(CC6CC6)CC5)CC4)cc3OC)nc2N1C(C)C [VOLASERTIB] | > 30 µM (inactive) | > 30 µM (inactive) | > 30 µM (inactive) | > 30 µM (inactive) | > 30 µM (inactive) | > 30 µM (inactive) |
| C[C@@H]1CN(Cc2ccc(F)cc2)[C@@H](C)CN1C(=O)c1cc2c(C(=O)C(=O)N(C)C)cn(C)c2cc1Cl [TALMAPIMOD] | > 30 µM (inactive) | > 30 µM (inactive) | > 30 µM (inactive) | > 30 µM (inactive) | > 30 µM (inactive) | > 30 µM (inactive) |
| CO[C@H]1C[C@@H]2CC[C@@H](C)[C@@](O)(O2)C(=O)C(=O)N2CCCC[C@H]2C(=O)O[C@H]([C@H](C)C[C@@H]2CC[C@@H](OCCO)[C@H](OC)C2)CC(=O)[C@H](C)/C=C(\C)[C@@H](O)[C@@H](OC)C(=O)[C@H](C)C[C@H](C)/C=C/C=C/C=C/1C [EVEROLIMUS] | > 30 µM (inactive) | > 30 µM (inactive) | > 30 µM (inactive) | > 30 µM (inactive) | > 30 µM (inactive) | > 30 µM (inactive) |
| CC(C)Nc1cc(-c2c[nH]c(C(=O)N[C@H](CO)c3cccc(Cl)c3)c2)c(Cl)cn1 [ULIXERTINIB] | > 30 µM (inactive) | > 30 µM (inactive) | > 30 µM (inactive) | > 30 µM (inactive) | > 30 µM (inactive) | > 30 µM (inactive) |
| COC(=O)[C@@]1(O)C[C@H]2O[C@]1(C)n1c3ccccc3c3c4c(c5c6ccccc6n2c5c31)C(=O)NC4 [K-252A] | > 30 µM (inactive) | > 30 µM (inactive) | > 30 µM (inactive) | 0.009 µM (active) | 0.131 µM (active) | 0.193 µM (active) |
| Cc1ccc(NC(=O)c2ccc(CN3CC[C@H](N(C)C)C3)c(C(F)(F)F)c2)cc1Nc1nccc(-c2cncnc2)n1 [BAFETINIB] | > 30 µM (inactive) | > 30 µM (inactive) | > 30 µM (inactive) | > 30 µM (inactive) | > 30 µM (inactive) | > 30 µM (inactive) |
| Cc1ccc(-n2nc(C(C)(C)C)cc2NC(=O)NCc2cc(F)ccc2Oc2ccc3c(cnn3CCO)c2)cc1 [PEXMETINIB] | > 30 µM (inactive) | > 30 µM (inactive) | > 30 µM (inactive) | > 30 µM (inactive) | > 30 µM (inactive) | > 30 µM (inactive) |
| CNC(=O)c1ccc(-c2cnc3ncc(Cc4ccc5ncccc5c4)n3n2)cc1F [CAPMATINIB] | > 30 µM (inactive) | > 30 µM (inactive) | > 30 µM (inactive) | > 30 µM (inactive) | > 30 µM (inactive) | > 30 µM (inactive) |
